Experimental data from patent US7767659B2, “Synthesis of naturally occurring ecteinascidins and related compounds” (Pharma Mar, S.A., priority 2002, dated 2010).

Experiments:
A-549 = test: cells; settings: Homo sapiens, A549, 48 h; for GI50: read-out: A549 GI50; for CC50: read-out: A549 LC50; for IC (TGI): read-out: A549 TGI
Method in brief: (§1)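 Colorimetric SRB read (490 nm) on triplicate wells after 48 h at 37 °C, 5% CO2. Dose range 10 to 10^−8 μg/ml; 5×10^3 cells/well pre-attached 18 h.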

HT-29 = test: cells; settings: Homo sapiens, HT-29, 48 h; for GI50: read-out: HT29 GI50; for CC50: read-out: HT29 LC50; for IC (TGI): read-out: HT29 TGI
Method in brief: as §1

LoVo = test: cells; settings: Homo sapiens, LoVo, 48 h; for GI50: read-out: LOVO GI50; for CC50: read-out: LOVO LC50; for IC (TGI): read-out: LOVO TGI
Method in brief: as §1

DU-145 = test: Inhibition of cells growth by colorimetric assay (SRB); settings: Homo sapiens, DU-145, 48 h; for GI50: read-out: DU145 GI50; for CC50: read-out: DU145 LC50; for IC (TGI): read-out: DU145 TGI
Method in brief: as §1

SK-MEL-28 = test: as above; settings: Homo sapiens, SK-MEL-28, 48 h; for GI50: read-out: MEL-28 GI50; for CC50: read-out: MEL-28 LC50; for IC (TGI): read-out: MEL-28 TGI
Method in brief: as §1

HeLa = test: as above; settings: Homo sapiens, HeLa, 48 h; for GI50: read-out: HELA GI50; for CC50: read-out: HELA LC50; for IC (TGI): read-out: HELA TGI
Method in brief: as §1

K-562 = test: as above; settings: Homo sapiens, K562, 48 h; for GI50: read-out: K562 GI50; for CC50: read-out: K562 LC50; for IC (TGI): read-out: K562 TGI
Method in brief: as §1

PANC-1 = test: as above; settings: Homo sapiens, PANC-1, 48 h; for GI50: read-out: PANC-1 GI50; for CC50: read-out: PANC-1 LC50; for IC (TGI): read-out: PANC-1 TGI
Method in brief: as §1

SK-BR-3 = test: as above; settings: Homo sapiens, SK-BR-3, 48 h; for GI50: read-out: SK-BR3 GI50; for CC50: read-out: SK-BR3 LC50; for IC (TGI): read-out: SK-BR3 TGI
Method in brief: as §1

LNCaP = test: as above; settings: Homo sapiens, LNCaP, 48 h; for GI50: read-out: LNCAP GI50; for CC50: read-out: LNCAP LC50; for IC (TGI): read-out: LNCAP TGI
Method in brief: as §1

LoVo-Dox = test: as above; settings: Homo sapiens, 48 h; for GI50: read-out: LOVO-DOX GI50; for CC50: read-out: LOVO-DOX LC50; for IC (TGI): read-out: LOVO-DOX TGI
Method in brief: as §1

IGROV-ET = test: as above; settings: Homo sapiens, 48 h; for GI50: read-out: IGROV-ET GI50; for CC50: read-out: IGROV-ET LC50; for IC (TGI): read-out: IGROV-ET TGI
Method in brief: as §1

IGROV-1 = test: as above; settings: Homo sapiens, IGROV-1, 48 h; for GI50: read-out: IGROV GI50; for CC50: read-out: IGROV LC50; for IC (TGI): read-out: IGROV TGI
Method in brief: as §1

HeLa-APL = test: as above; settings: Homo sapiens, 48 h; for GI50: read-out: HELA-APL GI50; for CC50: read-out: HELA-APL LC50; for IC (TGI): read-out: HELA-APL TGI
Method in brief: as §1

Compound: C=CCN1[C@@H]2c3c(cc(C)c(OC)c3O)C[C@H]1[C@H](C#N)N1C2[C@@H]2SC[C@]3(NCCc4cc(OC(=O)OC(C)(C)C)c(OC)cc43)C(=O)OC[C@H]1c1c3c(c(C)c(OC(=O)CCCCCCC)c12)OCO3 (some centres unmarked) [compound 48]
- GI50 (A-549): 8.1 µM
- CC50 (A-549): 10.2 µM
- IC (TGI) (A-549): 10.2 µM
- GI50 (HT-29): 6.71 µM
- CC50 (HT-29): 10.2 µM
- IC (TGI) (HT-29): 10.2 µM
- GI50 (LoVo): 4.01 µM
- CC50 (LoVo): 10.2 µM
- IC (TGI) (LoVo): 10.2 µM
- GI50 (DU-145): 2.55 µM
- CC50 (DU-145): 10.2 µM
- IC (TGI) (DU-145): 6.26 µM
- GI50 (SK-MEL-28): 3.19 µM
- CC50 (SK-MEL-28): 10.2 µM
- IC (TGI) (SK-MEL-28): 10.2 µM
- GI50 (HeLa): 2.17 µM
- CC50 (HeLa): 10.2 µM
- IC (TGI) (HeLa): 5.11 µM
- GI50 (K-562): 0.515 µM
- CC50 (K-562): 10.2 µM
- IC (TGI) (K-562): 2.73 µM
- GI50 (PANC-1): 4.42 µM
- CC50 (PANC-1): 10.2 µM
- IC (TGI) (PANC-1): 10.2 µM
- GI50 (SK-BR-3): 0.682 µM
- CC50 (SK-BR-3): 10.2 µM
- IC (TGI) (SK-BR-3): 4 µM
- GI50 (LNCaP): 1.67 µM
- CC50 (LNCaP): 6.31 µM
- IC (TGI) (LNCaP): 3.24 µM
- GI50 (LoVo-Dox): 10.2 µM
- CC50 (LoVo-Dox): 10.2 µM
- IC (TGI) (LoVo-Dox): 10.2 µM
- GI50 (IGROV-ET): 3.72 µM
- CC50 (IGROV-ET): 10.2 µM
- IC (TGI) (IGROV-ET): 10.2 µM
- GI50 (IGROV-1): 3.52 µM
- CC50 (IGROV-1): 10.2 µM
- IC (TGI) (IGROV-1): 10.2 µM
- GI50 (HeLa-APL): 1.87 µM
- CC50 (HeLa-APL): 7.87 µM
- IC (TGI) (HeLa-APL): 3.83 µM

Compound: C=CCN1[C@@H]2c3c(cc(C)c(OC)c3O)C[C@H]1[C@H](C#N)N1C2[C@@H]2SC[C@]3(NCCc4cc(O)c(OC)cc43)C(=O)OC[C@H]1c1c3c(c(C)c(OC(=O)/C=C/c4ccccc4)c12)OCO3 (some centres unmarked) [compound 49]
- GI50 (A-549): 0.184 µM
- CC50 (A-549): 1.01 µM
- IC (TGI) (A-549): 0.431 µM
- GI50 (HT-29): 0.194 µM
- CC50 (HT-29): 11.3 µM
- IC (TGI) (HT-29): 0.588 µM
- GI50 (LoVo): 0.25 µM
- CC50 (LoVo): 0.89 µM
- IC (TGI) (LoVo): 0.471 µM
- GI50 (DU-145): 0.107 µM
- CC50 (DU-145): 11.3 µM
- IC (TGI) (DU-145): 1.25 µM
- GI50 (SK-MEL-28): 0.181 µM
- CC50 (SK-MEL-28): 0.701 µM
- IC (TGI) (SK-MEL-28): 0.356 µM
- GI50 (HeLa): 0.189 µM
- CC50 (HeLa): 0.929 µM
- IC (TGI) (HeLa): 0.418 µM
- GI50 (K-562): 0.0377 µM
- CC50 (K-562): 5.1 µM
- IC (TGI) (K-562): 0.311 µM
- GI50 (PANC-1): 0.179 µM
- CC50 (PANC-1): 3.92 µM
- IC (TGI) (PANC-1): 0.564 µM
- GI50 (SK-BR-3): 0.0496 µM
- CC50 (SK-BR-3): 11.3 µM
- IC (TGI) (SK-BR-3): 1.86 µM
- GI50 (LNCaP): 0.0405 µM
- CC50 (LNCaP): 0.442 µM
- IC (TGI) (LNCaP): 0.175 µM
- GI50 (LoVo-Dox): 0.672 µM
- CC50 (LoVo-Dox): 11.3 µM
- IC (TGI) (LoVo-Dox): 11.3 µM
- GI50 (IGROV-ET): 0.28 µM
- CC50 (IGROV-ET): 11.3 µM
- IC (TGI) (IGROV-ET): 0.616 µM
- GI50 (IGROV-1): 0.165 µM
- CC50 (IGROV-1): 1.13 µM
- IC (TGI) (IGROV-1): 0.432 µM
- GI50 (HeLa-APL): 0.182 µM
- CC50 (HeLa-APL): 0.701 µM
- IC (TGI) (HeLa-APL): 0.357 µM

Compound: C=CCN1[C@@H]2c3c(cc(C)c(OC)c3O)C[C@H]1[C@H](C#N)N1C2[C@@H]2SC[C@]3(NCCc4cc(O)c(OC)cc43)C(=O)OC[C@H]1c1c3c(c(C)c(OC(=O)CCCCCCC)c12)OCO3 (some centres unmarked) [compound 50]
- GI50 (A-549): 3.76 µM
- CC50 (A-549): 11.3 µM
- IC (TGI) (A-549): 11.3 µM
- GI50 (HT-29): 8.9 µM
- CC50 (HT-29): 11.3 µM
- IC (TGI) (HT-29): 11.3 µM
- GI50 (LoVo): 4.94 µM
- CC50 (LoVo): 11.3 µM
- IC (TGI) (LoVo): 11.3 µM
- GI50 (DU-145): 1.8 µM
- CC50 (DU-145): 1130 µM
- IC (TGI) (DU-145): 918 µM
- GI50 (SK-MEL-28): 2.53 µM
- CC50 (SK-MEL-28): 11.3 µM
- IC (TGI) (SK-MEL-28): 8.36 µM
- GI50 (HeLa): 3.75 µM
- CC50 (HeLa): 11.3 µM
- IC (TGI) (HeLa): 11.3 µM
- GI50 (K-562): 0.891 µM
- CC50 (K-562): 11.3 µM
- IC (TGI) (K-562): 11.3 µM
- GI50 (PANC-1): 2.45 µM
- CC50 (PANC-1): 11.3 µM
- IC (TGI) (PANC-1): 11.3 µM
- GI50 (SK-BR-3): 13.1 µM
- CC50 (SK-BR-3): 11.3 µM
- IC (TGI) (SK-BR-3): 11.3 µM
- GI50 (LNCaP): 0.948 µM
- CC50 (LNCaP): 11.3 µM
- IC (TGI) (LNCaP): 3.68 µM
- GI50 (LoVo-Dox): 10.1 µM
- CC50 (LoVo-Dox): 11.3 µM
- IC (TGI) (LoVo-Dox): 11.3 µM
- GI50 (IGROV-ET): 3.29 µM
- CC50 (IGROV-ET): 11.3 µM
- IC (TGI) (IGROV-ET): 11.3 µM
- GI50 (IGROV-1): 2.42 µM
- CC50 (IGROV-1): 1130 µM
- IC (TGI) (IGROV-1): 11.3 µM
- GI50 (HeLa-APL): 3.11 µM
- CC50 (HeLa-APL): 11.3 µM
